Measured values reported in publication PMC2897950 (Cellular microbiology, 2010).

Biological target: T1, EhSir2a (EhSir2a-HH) (Entamoeba histolytica, UniProt C4LSH3)
T1 sequence (C4LSH3 1-383): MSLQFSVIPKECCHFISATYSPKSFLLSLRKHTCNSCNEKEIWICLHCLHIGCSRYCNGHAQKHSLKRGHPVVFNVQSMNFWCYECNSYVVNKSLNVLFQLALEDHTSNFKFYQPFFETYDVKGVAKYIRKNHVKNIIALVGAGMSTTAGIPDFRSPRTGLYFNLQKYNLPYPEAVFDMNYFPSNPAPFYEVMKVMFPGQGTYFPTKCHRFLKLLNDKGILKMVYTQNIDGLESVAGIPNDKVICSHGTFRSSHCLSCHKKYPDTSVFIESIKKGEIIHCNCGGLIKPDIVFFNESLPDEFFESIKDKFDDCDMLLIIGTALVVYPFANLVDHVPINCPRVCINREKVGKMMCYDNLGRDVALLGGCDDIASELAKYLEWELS
Test: fluorescent deacetylase assay
Type: biochemical
Conditions: 500 µM NAD+, 37 °C, 2 h; co-substrate of deacetylation

NC(=O)c1ccc[n+]([C@@H]2O[C@H](COP(=O)(O)OP(=O)(O)OC[C@H]3O[C@@H](n4cnc5c(N)ncnc54)[C@H](O)[C@@H]3O)[C@@H](O)[C@H]2O)c1 [NAD^+]
fluorescent deacetylase assay (Biomol kit), enzyme on Ni-NTA beads: EhSir2a showed high levels of deacetylase activity when NAD^+ was added
